Measured values from ChEMBL document CHEMBL1130541, “Investigation into the preferred conformation of gabapentin for interaction with its binding site on the 2 subunit of a calcium channel” (Bioorg Med Chem Lett, 1997).

Assays:
[1] = Binding affinity against alpha2-delta subunit of rat calcium channel
Rattus norvegicus = organism: Rattus norvegicus; test: Percent inhibition of binding to alpha2-delta subunit of rat calcium channel at 10 uM

SMILES | IC50 [1] | inhibition (Rattus norvegicus)
C[C@H]1CC[C@@](CN)(CC(=O)O)CC1 | 0.42 µM | 
C[C@H]1CC[C@](CN)(CC(=O)O)CC1 |  | 17%
C[C@@H]1C[C@H](C)C[C@@](CN)(CC(=O)O)C1 | 0.143 µM | 
C[C@@H]1C[C@H](C)C[C@](CN)(CC(=O)O)C1 |  | 38%
